System: human cardiac organoid cultured in the HEM hydrogel
Experiment: Drug reactivity of HEM scaffold-based human cardiac organoid by calcium imaging
Format: cell-based
Details: 7th day of culture, HEM hydrogel 4 mg/ml
Method: In order to check the reactivity of the human cardiac organoid cultured in the HEM hydrogel (4 mg/ml) to drugs, treatment with two representative drugs (isoproterenol and propranolol) affecting the heart rate was performed on the 7th day of culture, and reaction of the organoid thereto was checked through calcium imaging.

SMILES | beating of cardiac organoid (isoproterenol 1 μM) | beating of cardiac organoid (propranolol 10 μM)
CC(C)NCC(O)c1ccc(O)c(O)c1 (centres unmarked) [isoproterenol] | increased | 
CC(C)NCC(O)COc1cccc2ccccc12 (centres unmarked) [propranolol] |  | decreased

Reference: patent US20230108699A1, “HEART EXTRACELLULAR MATRIX-DERIVED SCAFFOLD FOR CULTURE AND TRANSPLANTATION OF CARDIAC ORGANOID AND METHOD OF PREPARING THE SAME” (CELLARTGEN INC., priority 2020, published 2023)
